Experimental data as given in a melting point compilation (Tetko et al.; mined from patent text by program, amines drawn as free bases though some values may be those of a salt).

Going from C=CCC(c1ccc(C(O)(C(F)(F)F)C(F)(F)F)cc1)S(=O)(=O)c1ccccc1 (centres undefined) to COc1ccc(SC(C)(Cc2ccccc2)C(=O)NO)cc1 (centres undefined), the melting point falls from 148 °C to 88 °C.

First: COc1nc(C)c(C(C)=O)cc1NC(=O)N1CCN(c2cccc(C)c2C)CC1
Second: COc1ccc(OC)c(C(=O)N2CCc3cc(O)ccc3C2)c1
The melting point of the first is higher: 173 to 174 °C for the first, 61 to 86 °C for the second.

First: CSC1(N)N=C(N(C)C)N=C(N)N1 (centres undefined)
Second: CCOC(=O)c1cc2c(Cl)ncnc2[nH]1
The melting point of the first is lower: 207 to 212 °C for the first, 219 to 221 °C for the second.

First: Cc1c(-c2ccc(OCc3ccccc3)cc2)n(Cc2ccc(OCCN3CCCCCC3)cc2)c2ccc(OCc3ccccc3)cc12
Second: O=C(O)CCc1cn(Cc2ccc(OCc3ccc(-c4ccccc4)nc3)cc2)cc1-c1ccccc1
The melting point of the first is lower: 106 to 107 °C for the first, 185 to 186 °C for the second.

First: O=C(NCCCc1ccncc1)N(CCC12CC3CC(CC(C3)C1)C2)CC1CC1
Second: CCCCCN(CCC12CC3CC(CC(C3)C1)C2)C(=O)NCCCn1ccnc1
The melting point of the first is higher: 123 to 125 °C for the first, 97 to 100 °C for the second.

First: CCOC(=O)c1cc2c(C)cccc2n1CCNS(=O)(=O)c1ccc(C)cc1
Second: CCOC(=O)CCCn1c(=O)[nH]c2ccccc2c1=O
The melting point of the first is lower: 92 to 93 °C for the first, 133 to 135 °C for the second.

First: OC1(NC2=NCCS2)C(=Cc2ccccc2)CSCC1=Cc1ccccc1 (centres undefined)
Second: O=S(=O)(c1ccccc1)c1c[nH]c2ccc(CCN3CCN(Cc4ccccc4)CC3)cc12
The melting point of the first is higher: 171 to 172 °C for the first, 150 to 153 °C for the second.

Compared with CCc1cc(CC)c2oc(C(=O)O)cc(=O)c2c1O, CN(C)C(=O)Cc1ccc2[nH]cc(CCN3C(=O)c4ccccc4C3=O)c2c1 is lower in melting point: 218 to 220 °C for the first, 193 to 194 °C for the second.

First: CCC1(CBr)Cc2cc(OC)c3c(c2C(c2ccccc2)=N1)CC(CC)(CC)O3 (centres undefined)
Second: COc1cc(/C=C/C=C/C=O)ccc1OCc1nc(-c2ccccc2)oc1C
The melting point of the first is lower: 108 to 110 °C for the first, 133 to 134 °C for the second.

First: O=C(O)CCCCCCCC(=O)CC(O)C(=O)C=Cc1ccccc1 (centres undefined)
Second: Cc1nc(N)c2nc(C)n(CCCCCSc3ccccc3)c2c1C
The melting point of the first is lower: 81.5 to 83 °C for the first, 181 to 183 °C for the second.

First: COc1ccc(CCNC(=O)N(OC(C)=O)C(C)(C)C)cc1OC
Second: CCCc1c(OCCCCCC(=O)c2ccc3cc(OC)c(OC)cc3c2)ccc(C(=O)OC)c1O
The melting point of the first is higher: 123 to 125 °C for the first, 111 to 112 °C for the second.

First: CCOC(=O)c1c2ccc(CC(=O)NOCCCN(CC)CC)ccc-2c(C(=O)OCC)c1N
Second: CC(C)(C)OC(=O)NC(Cc1ccc(O)cc1)C(=O)N1CCc2c(sc(N)c2C(=O)c2ccccc2)C1 (centres undefined)
The melting point of the first is lower: 125 to 127 °C for the first, 143 to 145 °C for the second.

First: O=C(OCc1cc(-c2ccc(F)cc2F)ccc1O)c1cc(O)c2c(c1)C(=O)c1cccc(O)c1C2=O
Second: COc1ccc(C#Cc2cc(Cl)cc3c2OC(CC(F)(F)F)C(C(=O)O)=C3)cc1 (centres undefined)
The melting point of the first is lower: 128 to 132 °C for the first, 218 to 219 °C for the second.

First: CN(CCN)CCNC(=O)c1nc(Br)c(N)nc1N
Second: CC(C)=NOCCCCn1cnc2c(N)nc3c(c21)CCCC3
The melting point of the first is lower: 148 to 150 °C for the first, 151 to 153 °C for the second.

First: Cc1cc(Nc2nc(-c3ccccc3)nc3ncccc23)[nH]n1
Second: COc1ccc(CNc2nc(Cl)ncc2C(=O)c2ccccn2)cc1Cl
The melting point of the first is higher: 234 °C for the first, 117 to 119 °C for the second.

Compared with CNC(=O)N(O)C(C)C#Cc1ccc(Br)cc1 (centres undefined), CS(=O)(=O)N=C(NCC(=O)O)Nc1ccc(C#N)cc1 is higher in melting point: 145 to 146 °C for the first, 170 °C for the second.

First: COCC1COc2cc3ncnc(Nc4cccc(Br)c4)c3cc2O1 (centres undefined)
Second: CC1CCC(=NC(=O)Nc2cccc(Cl)c2)N1C (centres undefined)
The melting point of the first is higher: 268 to 274 °C for the first, 129 to 130 °C for the second.

First: CCOC(=O)COc1c(CO)c(C(F)(F)F)nn1C
Second: COc1cc(OCCCCl)ccc1C(C)=O
The melting point of the first is higher: 57 to 59 °C for the first, 47 to 49 °C for the second.

Compared with CCCCN(C(=O)c1cc(C)oc1C)C1CC(C)(C)NC(C)(C)C1, C=CC(=O)N1CC[C@H]2[C@H]1[C@@H](CCC)C(=O)N2S(C)(=O)=O (relative stereo) is higher in melting point: 78 to 79 °C for the first, 177 to 181 °C for the second.

In the case of Cc1nn(-c2cc3nc(S)sc3cc2F)c(=O)n1C, the melting point was 299 to 301 °C.
